Experimental data as given in patent US20240270809A1, “ORAL GLP RECEPTOR AGONISTS” (priority 2020, published 2024).
Positions of bridges follow the written chain, without caps; N, C: chain ends. Non-standard residues stand in square brackets, D forms with d. Residues, ends and D or L forms follow the SMILES beside them. *: point of attachment. Malonyl(2,2-Me2,histaminyl) = CC(C)(C(=O)NCCc1cnc[nH]1)C(=O)*; Ala(1H-tetrazol-5-yl) = N[C@@H](Cc1nnn[nH]1)C(=O)O; αMePhe(2-F) = C[C@](N)(Cc1ccccc1F)C(=O)O; Nle = CCCC[C@H](N)C(=O)O; Aib = CC(C)(N)C(=O)O

What was measured:
human GLP1 receptor = target: T1, human GLP1 receptor (Homo sapiens, UniProt P43220); assay: cAMP accumulation assay, functional agonism of human GLP1 receptor; format: cell-based; settings: HEK cells infected with human GLP1 receptor BacMam virus, HTRF cAMP; for Emax: HEK293, read-out: Human GLP-1R agonist cAMP Emax; for EC50: read-out: Human GLP-1R agonist cAMP pEC50 (converted)
T1 construct: expressed in transfected cells; host or cells: HEK cells, BacMam virus transduction
Procedure, shortened: (§1)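 Steps: infect HEK cells with human GLP1 or GLP2 receptor BacMam for 24 hours; freeze; resuspend in HBSS with 0.5 mM IBMX; incubate with agonist 45 min at 37° C; lyse with HTRF detection reagents and read cAMP.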

[1] = Stability of peptides in Fasted-State Simulated Intestinal Fluid (FaSSIF); format: in vitro ADME; settings: FaSSIF with 10 mg/ml pancreatin, 37° C.; for remaining at 0.5 h: t=30 mins, pH 6.5, 10 mg/ml pancreatin; for remaining at 0.25 h: FaSSIF pH 6.5 with 10 mg/ml pancreatin, t = 15 mins
Experimental: Stability of peptides was tested in Fasted-State Simulated Intestinal Fluid (FaSSIF) prepared according to manufacturer's protocol (Biorelevant, art.no. FFF01, pH 6.5). […] FaSSIF was pre-incubated for 15 min at 37° C. and spiked with test and reference item working solutions. Experiments were conducted in duplicate in a non-serial manner. The total incubation volume per replicate was 150 μl. Sampling time points for test items were 0, 0.5, 2, 5, 10, 15 and 30 min. All samples and calibration standards (prepared in FaSSIF) were precipitated by addition of 300 μl precipitant (ACN / 2% acetic acid / 0.2% HFBA, (precipitation reagent, PR)) containing internal standard (ISTD) to 150 μl sample. After incubation for 1 h at room temperature all samples were centrifuged for 10 min at 2,200×g (room temperature).

human GLP2 receptor = target: T2, human GLP2 receptor (Homo sapiens, UniProt O95838); assay: cAMP accumulation assay, functional agonism of human GLP2 receptor; format: cell-based; settings: HEK cells infected with human GLP2 receptor BacMam virus, HTRF cAMP; for Emax: HEK293, read-out: Human GLP-2R agonist cAMP Emax; for EC50: read-out: Human GLP-2R agonist cAMP pEC50 (converted)
T2 construct: expressed in transfected cells; host or cells: HEK cells, BacMam virus transduction
T2 sequence (O95838 1-553): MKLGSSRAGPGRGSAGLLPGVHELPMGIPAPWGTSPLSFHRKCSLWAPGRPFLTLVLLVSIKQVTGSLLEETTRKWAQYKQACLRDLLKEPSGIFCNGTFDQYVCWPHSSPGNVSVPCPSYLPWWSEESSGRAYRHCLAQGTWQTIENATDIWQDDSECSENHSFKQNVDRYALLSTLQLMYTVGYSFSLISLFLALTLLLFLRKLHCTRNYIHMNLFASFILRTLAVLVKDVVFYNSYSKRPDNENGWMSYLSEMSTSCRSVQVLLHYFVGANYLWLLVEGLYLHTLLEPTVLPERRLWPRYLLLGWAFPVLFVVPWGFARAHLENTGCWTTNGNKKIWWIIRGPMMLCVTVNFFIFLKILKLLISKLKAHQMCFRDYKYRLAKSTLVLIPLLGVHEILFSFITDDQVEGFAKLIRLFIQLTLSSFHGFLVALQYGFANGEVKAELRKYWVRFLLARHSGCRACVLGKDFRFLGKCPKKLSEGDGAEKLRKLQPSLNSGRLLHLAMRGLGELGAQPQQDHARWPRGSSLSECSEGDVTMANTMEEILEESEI
Procedure, shortened: as §1

mouse GLP2 receptor = target: T3, mouse GLP2 receptor (Mus musculus, UniProt Q5IXF8); assay: cAMP accumulation assay, functional agonism of mouse GLP2 receptor; format: cell-based; settings: HEK cells transiently transfected with mouse GLP2 receptor, HTRF cAMP; for Emax: HEK293, read-out: Mouse GLP-2R agonist cAMP Emax; for EC50: read-out: Mouse GLP-2R agonist cAMP pEC50 (converted)
T3 construct: expressed in transfected cells; host or cells: HEK cells, transient transfection with GeneJuice
T3 sequence (Q5IXF8 1-512): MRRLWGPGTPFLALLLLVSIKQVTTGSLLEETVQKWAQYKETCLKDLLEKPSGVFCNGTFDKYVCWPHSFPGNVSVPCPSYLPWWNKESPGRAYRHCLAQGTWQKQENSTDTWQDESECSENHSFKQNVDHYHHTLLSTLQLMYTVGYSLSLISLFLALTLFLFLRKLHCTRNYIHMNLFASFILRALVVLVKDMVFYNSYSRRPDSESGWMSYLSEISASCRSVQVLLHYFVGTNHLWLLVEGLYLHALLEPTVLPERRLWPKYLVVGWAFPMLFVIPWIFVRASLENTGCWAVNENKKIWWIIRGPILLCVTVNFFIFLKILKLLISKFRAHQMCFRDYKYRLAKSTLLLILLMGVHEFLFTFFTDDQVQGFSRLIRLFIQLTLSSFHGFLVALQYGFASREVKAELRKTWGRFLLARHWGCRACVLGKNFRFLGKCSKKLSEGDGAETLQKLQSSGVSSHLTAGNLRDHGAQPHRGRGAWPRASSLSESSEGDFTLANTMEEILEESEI
Procedure, shortened: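 Transiently transfected HEK cells (24 h, frozen, 8000/well) in HBSS with 0.5 mM IBMX exposed to compound concentration series for 45 min at 37 °C. cAMP measured by HTRF after lysis and 1 h at RT; pEC50 from four-parameter concentration-response fit.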

T1 sequence (P43220 24-463): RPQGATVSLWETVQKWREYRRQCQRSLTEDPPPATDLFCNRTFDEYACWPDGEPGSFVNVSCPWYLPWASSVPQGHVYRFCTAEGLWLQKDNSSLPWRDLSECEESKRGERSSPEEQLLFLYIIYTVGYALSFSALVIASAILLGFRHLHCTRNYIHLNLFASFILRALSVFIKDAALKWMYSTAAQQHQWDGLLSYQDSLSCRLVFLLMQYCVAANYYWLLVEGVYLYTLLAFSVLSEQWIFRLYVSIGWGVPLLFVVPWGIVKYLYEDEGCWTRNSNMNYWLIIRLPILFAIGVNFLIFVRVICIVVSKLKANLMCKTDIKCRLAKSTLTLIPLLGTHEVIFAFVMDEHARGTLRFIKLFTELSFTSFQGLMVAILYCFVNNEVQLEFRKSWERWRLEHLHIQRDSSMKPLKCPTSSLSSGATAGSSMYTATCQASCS

Emax (human GLP1 receptor)	EC50 (human GLP1 receptor)	remaining at 0.5 h [1]	Emax (human GLP2 receptor)	EC50 (human GLP2 receptor)	Emax (mouse GLP2 receptor)	EC50 (mouse GLP2 receptor)	remaining at 0.25 h [1]	SMILES
95.4%	0.251 nM	12.2%	103%	0.01 nM	101%	0.794 nM		CCCC[C@@H]1NC(=O)[C@H](CCC(=O)O)NC(=O)[C@@H](NC(=O)[C@H](CO)NC(=O)[C@](C)(Cc2ccccc2F)NC(=O)[C@H](CO)NC(=O)[C@@H](C)NC(=O)[C@H](CC(=O)O)NC(=O)C(C)(C)NC(=O)[C@@H](N)Cc2c[nH]cn2)CCCCNC(=O)C[C@@H](C(=O)N[C@H](C(=O)N[C@@H](CC(C)C)C(=O)N[C@@H](CC(=O)O)C(=O)N[C@H]2CCC(=O)NCCCC[C@@H](C(=O)N[C@@H](CC(=O)O)C(=O)N[C@@H](Cc3ccccc3)C(=O)N[C@H](C(=O)N[C@@H](CC(N)=O)C(=O)N[C@@H](Cc3c[nH]c4ccccc34)C(=O)N[C@@H](CC(C)C)C(=O)N[C@H](C(=O)N[C@@H](CCC(N)=O)C(=O)N[C@H]3CCC(=O)NCCCC[C@@H](C(N)=O)NC(=O)[C@H]([C@@H](C)O)NC(=O)[C@H]([C@@H](C)CC)NC(=O)[C@H](CCCCN)NC3=O)[C@@H](C)CC)[C@@H](C)CC)NC(=O)[C@H](C)NC(=O)[C@H](C)NC(=O)[C@H](CCCCN)NC2=O)[C@@H](C)CC)NC(=O)[C@@H](Cc2ccccc2)NC1=O [Example 19] (H-H[Aib]D[dA]S[αMePhe(2-F)]SKE[Nle][dF]DILDEKAAKDFINWLIQEKITK-NH2; lactam 8-12, 16-20, 29-33 (inferred); C-terminus assumed)
92.7%	0.398 nM	6.8%	104%	0.00794 nM	94.5%	1.58 nM		CCCC[C@@H]1NC(=O)[C@H](CCC(=O)O)NC(=O)[C@@H](NC(=O)[C@H](CO)NC(=O)[C@H](Cc2ccccc2)NC(=O)[C@H](CO)NC(=O)CNC(=O)[C@H](Cc2nn[nH]n2)NC(=O)C(C)(C)C(=O)NCCc2c[nH]cn2)CCCCNC(=O)C[C@@H](C(=O)N[C@H](C(=O)N[C@@H](CC(C)C)C(=O)N[C@@H](CC(=O)O)C(=O)N[C@H]2CCC(=O)NCCCC[C@@H](C(=O)N[C@@H](CC(=O)O)C(=O)N[C@@H](Cc3ccccc3)C(=O)N[C@H](C(=O)N[C@@H](CC(N)=O)C(=O)N[C@@H](Cc3c[nH]c4ccccc34)C(=O)N[C@@H](CC(C)C)C(=O)N[C@H](C(=O)N[C@@H](CCC(N)=O)C(=O)N[C@H]3CCC(=O)NCCCC[C@@H](C(N)=O)NC(=O)[C@H]([C@@H](C)O)NC(=O)[C@H]([C@@H](C)CC)NC(=O)[C@H](CCCCN)NC3=O)[C@@H](C)CC)[C@@H](C)CC)NC(=O)[C@H](C)NC(=O)[C@H](C)NC(=O)[C@H](CCCCN)NC2=O)[C@@H](C)CC)NC(=O)[C@@H](Cc2ccccc2)NC1=O [Example 22] ({Malonyl(2,2-Me2,histaminyl)}-[Ala(1H-tetrazol-5-yl)]GSFSKE[Nle][dF]DILDEKAAKDFINWLIQEKITK-NH2; lactam 6-10, 14-18, 27-31 (inferred); C-terminus assumed)
88.1%	3.98 nM		103%	0.0158 nM			5%	CCCC[C@H](NC(=O)[C@H](CCC(=O)O)NC(=O)[C@@H]1CCCCNC(=O)CC[C@H](NC(=O)[C@H](CC(=O)O)NC(=O)C(C)(C)NC(=O)[C@@H](N)Cc2c[nH]cn2)C(=O)N[C@@H](CO)C(=O)N[C@@H](Cc2ccccc2)C(=O)N[C@@H](CO)C(=O)N1)C(=O)N[C@H](Cc1ccccc1)C(=O)N[C@H](C(=O)N[C@H](C(=O)N[C@@H](CC(C)C)C(=O)N[C@@H](CC(=O)O)C(=O)N[C@H]1CCCCNC(=O)C[C@@H](C(=O)N[C@@H](CC(=O)O)C(=O)N[C@@H](Cc2ccccc2)C(=O)N[C@H](C(=O)N[C@@H](CC(N)=O)C(=O)N[C@@H](Cc2c[nH]c3ccccc23)C(=O)N[C@@H](CC(C)C)C(=O)N[C@H](C(=O)N[C@@H](CCC(N)=O)C(=O)N[C@H](C(=O)N[C@@H](CCCCN)C(=O)N[C@H](C(=O)N[C@H](C(=O)N[C@@H](CC(=O)O)C(N)=O)[C@@H](C)O)[C@@H](C)CC)[C@@H](C)O)[C@@H](C)CC)[C@@H](C)CC)NC(=O)[C@H](C)NC(=O)[C@H](C)NC(=O)[C@H](CCCCN)NC1=O)[C@@H](C)CC)[C@@H](C)O [Example 110] (H-H[Aib]DESFSKE[Nle][dF]TILDKKAADDFINWLIQTKITD-NH2; lactam 4-8, 16-20; N-terminus and C-terminus assumed)
93.2%	0.794 nM		104%	0.631 nM			26.9%	CCCC[C@@H]1NC(=O)[C@H](CCC(=O)O)NC(=O)[C@H](CC(=O)O)NC(=O)[C@@H](NC(=O)[C@H](Cc2ccccc2)NC(=O)[C@H](CO)NC(=O)CNC(=O)[C@H](CC(=O)O)NC(=O)C(C)(C)NC(=O)[C@@H](N)Cc2c[nH]cn2)CCC(=O)NCCCC[C@@H](C(=O)N[C@H](C(=O)N[C@H](C(=O)N[C@@H](CC(C)C)C(=O)N[C@@H](CC(=O)O)C(=O)N[C@@H](CC(C)C)C(=O)N[C@@H](CCCCN)C(=O)N[C@@H](C)C(=O)N[C@@H](C)C(=O)N[C@@H](CCCCN)C(=O)N[C@@H](CC(=O)O)C(=O)N[C@@H](Cc2ccccc2)C(=O)N[C@H](C(=O)N[C@@H](CC(N)=O)C(=O)N[C@@H](Cc2c[nH]c3ccccc23)C(=O)N[C@@H](CC(C)C)C(=O)N[C@H](C(=O)N[C@@H](CCC(N)=O)C(=O)N[C@H](C(=O)N[C@H]2CCC(=O)NCCCC[C@@H](C(N)=O)NC(=O)[C@H]([C@@H](C)O)NC(=O)[C@H]([C@@H](C)CC)NC2=O)[C@@H](C)O)[C@@H](C)CC)[C@@H](C)CC)[C@@H](C)CC)[C@@H](C)O)NC1=O [Example 111] (H-H[Aib]DGSFEDE[Nle]KTILDLKAAKDFINWLIQTEITK-NH2; lactam 7-11, 30-33 (inferred); C-terminus assumed)
